Here are results for ten molecules from ChEMBL document CHEMBL1151111, “Antitumor agents, 99. Synthetic ring C aromatized podophyllotoxin analogues as potential inhibitors of human DNA topoisomerase II” (1988).

Test [1] is filed under the species Homo sapiens. Briefly: Inhibition of human DNA topoisomerase 2 at 400 uM.
Another test has as its system KB. The experiment in a line: Cytotoxicity against human KB cells. To be noted: read-out: ED50 (the source's name). In kind it is functional.
For test [2], the species on record is Homo sapiens. Briefly: Inhibition of human DNA topoisomerase 2 at 200 uM.
In a further test the test system is P388. The experiment in a line: In vivo cytotoxicity against mouse P388 cells at 50 mg/kg/day relative to control. It is filed as functional.

Values after ≈ are worked out from the molar mass of the structure shown. Active and inactive are the calls of the source. The rule behind the calls is not given here.

Regarding `CCO[C@@H]1c2cc3c(cc2[C@@H](c2cc(OC)c(O)c(OC)c2)[C@H]2C(=O)OC[C@@H]21)OCO3`, the inhibition (in general, the change of the read-out against control, counted positive when it falls) in the test listed under Homo sapiens [1] was determined as 25%. The EC50 with KB was determined as 1.1 µg/mL (≈ 2.57 µM).

`CCOc1c2c(c(-c3cc(OC)c(O)c(OC)c3)c3cc4c(cc13)OCO4)C(=O)OC2`: the inhibition entry in the test filed under Homo sapiens [2] was “inactive”. Besides, the EC50 in the test on KB stood at 4 µg/mL (≈ 9.42 µM).

Take `COc1cc(-c2c3c(c(O)c4cc5c(cc24)OCO5)COC3=O)cc(OC)c1O`: the inhibition entry in the test filed under Homo sapiens [2] was “inactive”. Moreover, the EC50 with KB is 2.2 µg/mL (≈ 5.55 µM).

In turn, `COc1cc([C@@H]2c3cc4c(cc3[C@@H](O)[C@H]3COC(=O)[C@H]23)OCO4)cc(OC)c1O` [4'-DEMETHYLEPIPODOPHYLLOTOXIN] had an inhibition in the test listed under Homo sapiens [1] of 50%. In the test with KB, the EC50 is 0.1 µg/mL (≈ 0.25 µM).

As to `CCOc1c2c(c(-c3cc(OC)c(OC)c(OC)c3)c3cc4c(cc13)OCO4)C(=O)OC2` [DEHYDROPODOPHYLLOTOXIN ETHYL ETHER], the inhibition result in the test filed under Homo sapiens [2] was “inactive”. Also, in the test with KB, the EC50 is 4 µg/mL (≈ 9.12 µM).

Turning to `CCCOc1c2c(c(-c3cc(OC)c(OC)c(OC)c3)c3cc4c(cc13)OCO4)C(=O)OC2` [DEHYDROPODOPHYLLOTOXIN PROPYL ETHER], in the test listed under Homo sapiens [2], the inhibition result is “inactive”. The EC50 in the test on KB came to 4 µg/mL (≈ 8.84 µM).

Turning to `COc1cc(-c2c3c(c(O)c4cc5c(cc24)OCO5)COC3=O)cc(OC)c1OC` [DEHYDROPODOPHYLLOTOXIN], in the test filed under Homo sapiens [2], the inhibition result was “inactive”. In the test on KB, the EC50 is 4 µg/mL (≈ 9.75 µM).

As for `COc1cc2c(O)c3c(c(-c4ccc5c(c4)OCO5)c2cc1OC)C(=O)OC3` [DIPHYLLIN], the T/C (in general, the result in the treated group divided by that in the control group, in per cent) in the test with P388 amounted to 150%. Besides, the EC50 in the test on KB was less than 1 µg/mL.

Take `COc1cc([C@@H]2c3cc4c(cc3[C@@H](O[C@@H]3O[C@@H]5CO[C@@H](C)O[C@H]5[C@H](O)[C@H]3O)[C@H]3COC(=O)[C@H]23)OCO4)cc(OC)c1O` [ETOPOSIDE]: the inhibition in the test filed under Homo sapiens [2] is 80%; in the test filed under Homo sapiens [1], 85%. The EC50 with KB came to 0.1 µg/mL (≈ 0.17 µM).

In the test with P388, `COc1cc2c(OC)c3c(c(-c4ccc5c(c4)OCO5)c2cc1OC)C(=O)OC3` [JUSTICIDIN A] displayed a T/C of 150%. Further, in the test on KB, the EC50 was less than 1 µg/mL.
